SMILES strings stand for the structures.

The first assay has as its target T1, 5-lipoxygenase (Rattus norvegicus, UniProt P12527).
T1 construct: homogenized RBL-1 cells; endogenous in cells; host or cells: RBL-1 cells (20,000×g supernatant of homogenate)
T1 sequence (P12527 1-673): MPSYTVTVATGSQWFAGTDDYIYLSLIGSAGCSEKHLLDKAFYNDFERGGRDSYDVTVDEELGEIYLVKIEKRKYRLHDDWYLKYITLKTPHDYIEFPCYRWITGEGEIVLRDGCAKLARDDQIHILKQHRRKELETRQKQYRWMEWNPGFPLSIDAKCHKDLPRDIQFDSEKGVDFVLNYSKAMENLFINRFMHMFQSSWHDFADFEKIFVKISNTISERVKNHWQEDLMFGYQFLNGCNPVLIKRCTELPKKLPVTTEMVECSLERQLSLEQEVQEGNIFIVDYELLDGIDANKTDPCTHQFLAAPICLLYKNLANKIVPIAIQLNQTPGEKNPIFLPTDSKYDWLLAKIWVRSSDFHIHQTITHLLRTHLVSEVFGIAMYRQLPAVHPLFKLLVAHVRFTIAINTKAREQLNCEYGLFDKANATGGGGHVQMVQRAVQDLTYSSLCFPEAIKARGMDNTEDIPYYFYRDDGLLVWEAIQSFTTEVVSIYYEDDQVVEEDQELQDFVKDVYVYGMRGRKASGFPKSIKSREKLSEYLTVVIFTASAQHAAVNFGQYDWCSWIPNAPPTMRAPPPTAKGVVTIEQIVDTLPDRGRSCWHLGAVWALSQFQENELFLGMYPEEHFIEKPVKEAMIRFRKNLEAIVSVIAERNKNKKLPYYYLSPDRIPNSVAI
As to the kind of experiment: 5-Lipoxygenase inhibition, 20,000×g supernatant of homogenized RBL-1 cells, radiolabeled arachidonic acid. The settings on record: 5-lipoxygenase from RBL-1 20,000 × g supernatant; read-out: IC50 (95% CL). Type of assay: biochemical. The method, then: Proc., Fed. Am. Soc. Exp. Biol. 1984, 43, […]. Reactions were initiated by the addition of radiolabeled arachidonic acid and terminated by acidification and ether extraction. Reaction products were separated from nonconvented substrate by thin layer chromatography and measured by liquid scintillation spectroscopy. Inhibition of 5-lipoxygenase activity was calculated as the ratio of the amounts of product formed in the presence and absence of inhibitor.
As to `COc1ccc2nc(-c3nc(O)c(C)s3)sc2c1` [Example 6, 2-[2-(6-Methoxybenzothiazolyl)]-4-hydroxy-5-methylthiazole], the IC50 came out at 890 nM.
The same measure, in the same setting: with `Cc1sc(-c2ccc(F)cc2)nc1O` [Example 9, 2-(4-Fluorophenyl)-4-hydroxy-5-methylthiazole] the figure was 350 nM.
Same read-out and setting: for `Cc1sc(-c2ccc(Br)cc2)nc1O` [Example 10, 2-(4-Bromophenyl)-4-hydroxy-5-methylthiazole] the value was 510 nM; for `Cc1sc(-c2ccc(Cl)cc2)nc1O` [Example 11, 2-(4-Chlorophenyl)-4-hydroxy-5-methylthiazole], 570 nM; for `Cc1sc(-c2ccc(C(=O)OCCc3ccccc3)cc2)nc1O` [Example 13, 2-(4-Carbo-2-phenethoxyphenyl)-4-hydroxy-5-methylthiazole], 980 nM.
The same measure, in the same setting: for `COC(=O)c1ccc(-c2nc(O)c(C)s2)cc1` [Example 17, 2-(4-Carbomethoxyphenyl)-4-hydroxy-5-methylthiazole] the value was 880 nM.
For `CC(=O)c1ccc(-c2nc(O)c(C)s2)cc1` [Example 18, 2-(4-Acetylphenyl)-4-hydroxy-5-methylthiazole], the IC50 was found to be 900 nM.
For the compound `Cc1sc(-c2ccc(C#N)cc2)nc1O` [Example 20, 2-(4-Cyanophenyl)-4-hydroxy-5-methylthiazole], the IC50 was found to be 700 nM.
As to `CCOC(=O)c1ccc(-c2nc(O)c(C)s2)cc1` [Example 23, 2-(4-Carboethoxyphenyl)-4-hydroxy-5-methylthiazole], the IC50 was 710 nM.
Same read-out and setting: with `Cc1sc(-c2ccccc2F)nc1O` [Example 24, 2-(2-Fluorophenyl)-4-hydroxy-5-methylthiazole] the figure was 500 nM; with `Cc1sc(-c2cccc(F)c2)nc1O` [Example 25, 2-(3-Fluorophenyl)-4-hydroxy-5-methylthiazole], 660 nM; with `Cc1sc(-c2cccc(Br)c2)nc1O` [Example 26, 2-(3-Bromophenyl)-4-hydroxy-5-methylthiazole], 480 nM.
With `Cc1cccc(-c2nc(O)c(C)s2)c1Cl` [Example 29, 2-(2-Chloro-3-methylphenyl)-4-hydroxy-5-methylthiazole], the IC50 came to 820 nM.
Consider `Cc1sc(-c2ccccc2)nc1O` [Example 31, 2-Phenyl-4-hydroxy-5-methylthiazole], for which the IC50 was found to be 960 nM.
As for `Cc1ccc(-c2nc(O)c(C)s2)cc1` [Example 33, 2-(4-Methylphenyl)-4-hydroxy-5-methylthiazole], the IC50 is 630 nM.
Still for that read-out and setting: for `Oc1nc(-c2ccccc2)sc1-c1ccccc1` [Example 34, 2-Phenyl-4-hydroxy-5-phenylthiazole] the value was 530 nM; for `CCc1sc(-c2ccccc2)nc1O` [Example 35, 2-Phenyl-4-hydroxy-5-ethylthiazole], 830 nM; for `CCCc1sc(-c2ccccc2)nc1O` [Example 36, 2-Phenyl-4-hydroxy-5-propylthiazole], 580 nM.
Same read-out and setting: with `Oc1nc(-c2ccccc2)sc1CCc1ccccc1` [Example 38, 2-Phenyl-4-hydroxy-5-phenethylthiazole] the figure was 690 nM; with `CCOC(=O)CCC(=O)Oc1nc(-c2ccccc2)sc1-c1ccccc1` [Example 53, 2-Phenyl-4-ethyl succinyloxy-5-phenylthiazole], 750 nM.
For the compound `CCCc1sc(-c2ccccc2)nc1OC(=O)OCC` [Example 54, 2-Phenyl-[4-(carboethoxy)oxy]-5-propylthiazole], the IC50 came out at 910 nM.
On the same count and under the same terms, with `COC(=O)c1ccc(-c2nc(OC(C)=O)c(C)s2)cc1` [Example 60, 2-(4-Carbomethoxyphenyl)-4-acetoxy-5-methylthiazole] the figure was 690 nM; with `CCCCc1sc(-c2ccccc2)nc1OC(C)=O` [Example 67, 2-Phenyl-4-acetoxy-5-butylthiazole], 950 nM.

The assay is the same for the next values; noted with them: at 0.3 μM; RBL-1 20,000 × g supernatant; read-out: % Inhibition at μM Conc.
For `Oc1nc(-c2cccnc2)sc1-c1ccccc1` [Example 41, 2-(3-Pyridyl)-4-hydroxy-5-phenylthiazole], the inhibition at 0.3 µM was found to be 83%.
Same read-out and setting: for `COc1ccc(-c2nc(O)c(-c3ccccc3)s2)cc1` [Example 43, 2-(4-Methoxyphenyl)-4-hydroxy-5-phenylthiazole] the value was 88%.

Staying with this assay, now noted: at 0.4 μM; RBL-1 20,000 × g supernatant; read-out: % Inhibition at μM Conc.
For the compound `Cc1ccc(-c2nc(O)c(-c3ccccc3)s2)cc1` [Example 46, 2-(4-Methylphenyl)-4-hydroxy-5-phenylthiazole], the inhibition at 0.4 µM worked out at 91%.
On the same count and under the same terms, for `Oc1nc(-c2ccc(F)cc2)sc1-c1ccccc1` [Example 47, 2-(4-Fluorophenyl)-4-hydroxy-5-phenylthiazole] the value was 82%; for `CCOc1ccc(-c2nc(O)c(-c3ccccc3)s2)cc1` [Example 48, 2-(4-Ethoxyphenyl)-4-hydroxy-5-phenylthiazole], 77%; for `CC(=O)Oc1nc(-c2ccccc2)sc1-c1ccccc1` [Example 50, 2-Phenyl-4-acetoxy-5-phenylthiazole], 88%.

Still in this assay, the particulars now being: at 0.5 μM; RBL-1 20,000 × g supernatant; read-out: % Inhibition at μM Conc.
Turning to `CC(=O)Oc1nc(-c2ccc(C)cc2)sc1-c1ccccc1` [Example 62, 2-(4-Methylphenyl)-4-acetoxy-5-phenylthiazole], the inhibition at 0.5 µM turned out to be 93%.

The assay is the same for the next values; noted with them: at 0.75 μM; RBL-1 20,000 × g supernatant; read-out: % Inhibition at μM Conc.
For the compound `CC(=O)Oc1nc(-c2ccc(-c3ccccc3)cc2)sc1-c1ccccc1` [Example 65, 2-Biphenyl-4-acetoxy-5-phenylthiazole], the inhibition at 0.75 µM turned out to be 82%.

The assay is the same for the next values; noted with them: at 1 μM; RBL-1 20,000 × g supernatant; read-out: % Inhibition at μM Conc.
Consider `CCCCCc1nc(OC(C)=O)c(CCC)s1` [Example 68, 2-Pentyl-4-acetoxy-5-propylthiazole], for which the inhibition at 1 µM amounted to 79%.

Source of the values: patent US5124342A, “4-hydroxythiazoles as 5-lipoxygenase inhibitors” (Abbott Laboratories, priority 1990, dated 1992).
